Source: patent US10544150B2, “NK-3 receptor selective antagonist compounds, pharmaceutical composition and methods for use in NK-3 receptors mediated disorders” (Ogeda SA, priority 2010, dated 2020)

These molecules were tested against human NK-3 receptor (Homo sapiens (Human), UniProt P29371) (assay: 3H-SB222200 binding competition assay with human NK-3 receptor). Conditions: 3H-SB222200 displacement, CHO cell membranes expressing human NK3 receptor; read-out: Ki range.
Summary of the method: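 Radioligand displacement: 5 nM tritiated SB222200 competed by varying compound concentrations on recombinant CHO membranes bearing human NK3, buffer pH 7.4 with HEPES, NaCl, CaCl2, MgCl2, BSA and saponin. Filter-bound radioactivity quantified; calculated Ki given as ranges from +++ (<500 nM) to # (>5 μM).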

Sequence of human NK-3 receptor (P29371 whole entry): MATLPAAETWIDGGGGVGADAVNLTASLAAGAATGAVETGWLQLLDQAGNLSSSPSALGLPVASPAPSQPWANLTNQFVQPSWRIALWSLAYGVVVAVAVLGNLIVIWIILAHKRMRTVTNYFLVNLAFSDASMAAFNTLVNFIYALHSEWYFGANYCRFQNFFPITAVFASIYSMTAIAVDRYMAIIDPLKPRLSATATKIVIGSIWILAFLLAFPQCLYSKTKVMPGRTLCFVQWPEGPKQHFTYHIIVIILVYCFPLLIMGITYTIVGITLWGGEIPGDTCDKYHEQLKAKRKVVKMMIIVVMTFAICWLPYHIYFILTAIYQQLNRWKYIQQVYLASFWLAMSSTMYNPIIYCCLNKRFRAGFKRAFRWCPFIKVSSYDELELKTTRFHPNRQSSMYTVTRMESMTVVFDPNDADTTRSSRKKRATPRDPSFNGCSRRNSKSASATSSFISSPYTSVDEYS

Compound	Ki [nM]
COCCn1nc(-c2ccccc2)cc1-c1nnc2n1CCN(C(=O)c1ccc(-c3cccs3)cc1)C2 [Compound 254, (3-(1-(2-methoxyethyl)-3-phenyl-1H-pyrazol-5-yl)-5,6-dihydro-[1,2,4]triazolo[4,3-a]pyrazin-7(8H)-yl)(4-(thiophen-2-yl)phenyl)methanone]	< 500
Cc1cccc(-c2nnc3n2CCN(C(=O)c2ccc(F)cc2)C3C)n1 (centres unmarked) [Compound 278, (4-fluorophenyl)(8-methyl-3-(6-methylpyridin-2-yl)-5,6-dihydro-[1,2,4]triazolo[4,3-a]pyrazin-7(8H)-yl)methanone]	< 500
O=C(c1ccccc1-c1ccccc1)N1CCn2c(nnc2-c2ccc3ccccc3n2)C1 [Compound 96, [1,1′-biphenyl]-2-yl(3-(quinolin-2-yl)-5,6-dihydro-[1,2,4]triazolo[4,3-a]pyrazin-7(8H)-yl)methanone]	> 5000
CC(C)(C)OC(=O)NCCOc1ccccc1-c1nc(-c2nnc3n2CCN(C(=O)c2ccc(-c4cccs4)cc2)C3)cs1 [Compound 280, tert-butyl(2-(2-(4-(7-(4-(thiophen-2-yl)benzoyl)-5,6,7,8-tetrahydro-[1,2,4]triazolo[4,3-a]pyrazin-3-yl)thiazol-2-yl)phenoxy)ethyl)carbamate]	< 500
O=C(c1ccc(F)cc1)N1CCn2c(-c3csc(-c4ccccc4)n3)nnc2C1c1ccc(F)cc1 (centres unmarked) [Compound 41, (4-fluorophenyl)(8-(4-fluorophenyl)-3-(2-phenylthiazol-4-yl)-5,6-dihydro-[1,2,4]triazolo[4,3-a]pyrazin-7(8H)-yl)methanone]	< 500
O=C(c1ccc(F)cc1)N1CCn2c(nnc2-c2csc(-c3ccc(N4CCCCC4)cc3)n2)C1 [Compound 244, (4-fluorophenyl)(3-(2-(4-(piperidin-1-yl)phenyl)thiazol-4-yl)-5,6-dihydro-[1,2,4]triazolo[4,3-a]pyrazin-7(8H)-yl)methanone]	500 to 1000
CN(C)c1ccc(-c2nc(-c3nnc4n3CCN(C(=O)c3ccc(F)cc3)C4)cs2)cc1 [Compound 221, (3-(2-(4-(dimethylamino)phenyl)thiazol-4-yl)-5,6-dihydro-[1,2,4]triazolo[4,3-a]pyrazin-7(8H)-yl)(4-fluorophenyl)methanone]	500 to 1000
C[C@H]1c2nnc(-c3csc(N4CCOCC4)n3)n2CCN1C(=O)c1ccc(-c2cccs2)cc1 [Compound 227, (S)-(8-methyl-3-(2-morpholinothiazol-4-yl)-5,6-dihydro-[1,2,4]triazolo[4,3-a]pyrazin-7(8H)-yl)(4-(thiophen-2-yl)phenyl)methanone]	500 to 1000
CC(C)C1c2nnc(-c3csc(-c4ccccc4)n3)n2CCN1C(=O)c1ccc(F)cc1 (centres unmarked) [Compound 43, (4-fluorophenyl)(8-isopropyl-3-(2-phenylthiazol-4-yl)-5,6-dihydro-[1,2,4]triazolo[4,3-a]pyrazin-7(8H)-yl)methanone]	1000 to 5000
O=C(c1ccc(F)cc1)N1CCn2c(nnc2-c2nc(-c3ccccc3)cs2)C1 [Compound 57, (4-fluorophenyl)(3-(4-phenylthiazol-2-yl)-5,6-dihydro-[1,2,4]triazolo[4,3-a]pyrazin-7(8H)-yl)methanone]	< 500
O=C(c1ccc(-c2cccs2)cc1)N1CCn2c(nnc2-c2noc(-c3ccccc3)n2)C1 [Compound 171, (3-(5-phenyl-1,2,4-oxadiazol-3-yl)-5,6-dihydro-[1,2,4]triazolo[4,3-a]pyrazin-7(8H)-yl)(4-(thiophen-2-yl)phenyl)methanone]	< 500
O=C(c1ccc(-c2cccs2)cc1)N1CCn2c(nnc2-c2nc(-c3ccccc3)no2)C1 [Compound 174, (3-(3-phenyl-1,2,4-oxadiazol-5-yl)-5,6-dihydro-[1,2,4]triazolo[4,3-a]pyrazin-7(8H)-yl)(4-(thiophen-2-yl)phenyl)methanone]	< 500
O=C(c1ccc(-c2ccccc2)cc1)N1CCn2c(nnc2-c2csc(CS(=O)(=O)c3ccc(Cl)cc3)n2)C1 [Compound 199, [1,1′-biphenyl]-4-yl(3-(2-(((4-chlorophenyl)sulfonyl)methyl)thiazol-4-yl)-5,6-dihydro-[1,2,4]triazolo[4,3-a]pyrazin-7(8H)-yl)methanone]	1000 to 5000
O=C(c1ccc(Cl)c(Cl)c1)N1CCn2c(nnc2-c2ccccn2)C1 [Compound 5, (3,4-dichlorophenyl)(3-(pyridin-2-yl)-5,6-dihydro-[1,2,4]triazolo[4,3-a]pyrazin-7(8H)-yl)methanone]	1000 to 5000
CC(C)c1nc(-c2nnc3n2CCN(C(=O)c2ccc(F)cc2)C3)cs1 [Compound 208, (4-fluorophenyl)(3-(2-isopropylthiazol-4-yl)-5,6-dihydro-[1,2,4]triazolo[4,3-a]pyrazin-7(8H)-yl)methanone]	1000 to 5000
O=C(c1ccc(-c2ccccc2)cc1)N1CCn2c(nnc2-c2ccccn2)C1 [Compound 6, [1,1′-biphenyl]-4-yl(3-(pyridin-2-yl)-5,6-dihydro-[1,2,4]triazolo[4,3-a]pyrazin-7(8H)-yl)methanone]	1000 to 5000
O=C(c1ccc(F)cc1)N1CCn2c(nnc2-c2nc(-c3ccccc3)no2)C1 [Compound 172, (4-fluorophenyl)(3-(3-phenyl-1,2,4-oxadiazol-5-yl)-5,6-dihydro-[1,2,4]triazolo[4,3-a]pyrazin-7(8H)-yl)methanone]	< 500
O=C(c1ccc(F)cc1)N1CCn2c(nnc2-c2csc(-c3ccc(F)cc3)n2)C1 [Compound 32, (4-fluorophenyl)(3-(2-(4-fluorophenyl)thiazol-4-yl)-5,6-dihydro-[1,2,4]triazolo[4,3-a]pyrazin-7(8H)-yl)methanone]	< 500
CC1CN(c2nc(-c3nnc4n3CCN(C(=O)c3ccc(-c5cccs5)cc3)C4)cs2)CCO1 (centres unmarked) [Compound 273, (3-(2-(2-methylmorpholino)thiazol-4-yl)-5,6-dihydro-[1,2,4]triazolo[4,3-a]pyrazin-7(8H)-yl)(4-(thiophen-2-yl)phenyl)methanone]	< 500
C[C@H]1c2nnc(-c3ccc4ccccc4n3)n2CCN1C(=O)c1ccc(F)cc1 [Compound 162, (S)-(4-fluorophenyl)(8-methyl-3-(quinolin-2-yl)-5,6-dihydro-[1,2,4]triazolo[4,3-a]pyrazin-7(8H)-yl)methanone]	< 500

Other lines, results leading:

Ki [nM]	Compound
< 500	O=C(c1ccc(-c2ccccc2)cc1)N1CCn2c(nnc2-c2nc(-c3ccc(F)cc3)no2)C1 [Compound 204, [1,1′-biphenyl]-4-yl(3-(3-(4-fluorophenyl)-1,2,4-oxadiazol-5-yl)-5,6-dihydro-[1,2,4]triazolo[4,3-a]pyrazin-7(8H)-yl)methanone]
< 500	O=C(c1ccc(F)cc1)N1CCn2c(nnc2-c2csc(-c3ccccc3F)n2)C1 [Compound 180, (4-fluorophenyl)(3-(2-(2-fluorophenyl)thiazol-4-yl)-5,6-dihydro-[1,2,4]triazolo[4,3-a]pyrazin-7(8H)-yl)methanone]
500 to 1000	CC1CN(C(=O)c2ccc(-c3cccs3)cc2)Cc2nnc(-c3csc(-c4ccc(F)cc4)n3)n21 (centres unmarked) [Compound 108, (3-(2-(4-fluorophenyl)thiazol-4-yl)-5-methyl-5,6-dihydro-[1,2,4]triazolo[4,3-a]pyrazin-7(8H)-yl)(4-(thiophen-2-yl)phenyl)methanone]
1000 to 5000	CC(C)Cc1nc(-c2nnc3n2CCN(C(=O)c2ccc(F)cc2)C3)cs1 [Compound 259, (4-fluorophenyl)(3-(2-isobutylthiazol-4-yl)-5,6-dihydro-[1,2,4]triazolo[4,3-a]pyrazin-7(8H)-yl)methanone]
< 500	O=C(c1ccc(-c2cccs2)cc1)N1CCn2c(nnc2-c2cc(-c3ccccc3)n[nH]2)C1 [Compound 267, (3-(3-phenyl-1H-pyrazol-5-yl)-5,6-dihydro-[1,2,4]triazolo[4,3-a]pyrazin-7(8H)-yl)(4-(thiophen-2-yl)phenyl)methanone]
< 500	O=C(c1ccc(F)cc1)N1CCn2c(nnc2-c2csc(-c3ccccc3)n2)C1 [Compound 8, (4-fluorophenyl)(3-(2-phenylthiazol-4-yl)-5,6-dihydro-[1,2,4]triazolo[4,3-a]pyrazin-7(8H)-yl)methanone]
< 500	O=C(c1ccc(-c2cccs2)cc1)N1CCn2c(nnc2-c2csc(N3CCOCC3)n2)C1 [Compound 55, (3-(2-morpholinothiazol-4-yl)-5,6-dihydro-[1,2,4]triazolo[4,3-a]pyrazin-7(8H)-yl)(4-(thiophen-2-yl)phenyl)methanone]
> 5000	Cc1ccc(-c2nc(-c3nnc4n3CCN(C(=O)c3ccc(-c5cccs5)cc3)C4)cs2)cc1 [Compound 191, (4-(thiophen-2-yl)phenyl)(3-(2-(p-tolyl)thiazol-4-yl)-5,6-dihydro-[1,2,4]triazolo[4,3-a]pyrazin-7(8H)-yl)methanone]
< 500	CN(C)c1ccc(-c2nc(-c3nnc4n3CCN(C(=O)c3ccc(-c5cccs5)cc3)C4)cs2)cc1 [Compound 229, (3-(2-(4-(dimethylamino)phenyl)thiazol-4-yl)-5,6-dihydro-[1,2,4]triazolo[4,3-a]pyrazin-7(8H)-yl)(4-(thiophen-2-yl)phenyl)methanone]
1000 to 5000	O=C(c1ccc(-c2ccc(F)cc2)cc1)N1CCn2c(nnc2-c2ccccn2)C1 [Compound 16, (4′-fluoro-[1,1′-biphenyl]-4-yl)(3-(pyridin-2-yl)-5,6-dihydro-[1,2,4]triazolo[4,3-a]pyrazin-7(8H)-yl)methanone]
1000 to 5000	Cn1nc(-c2ccc(Cl)c(Cl)c2)cc1C(=O)N1CCn2c(nnc2-c2ccccn2)C1 [Compound 14, (3-(3,4-dichlorophenyl)-1-methyl-1H-pyrazol-5-yl)(3-(pyridin-2-yl)-5,6-dihydro-[1,2,4]triazolo[4,3-a]pyrazin-7(8H)-yl)methanone]
< 500	O=C(c1ccc(-c2ccsc2)cc1)N1CCn2c(nnc2-c2csc(-c3ccccc3)n2)C1 [Compound 63, (3-(2-phenylthiazol-4-yl)-5,6-dihydro-[1,2,4]triazolo[4,3-a]pyrazin-7(8H)-yl)(4-(thiophen-3-yl)phenyl)methanone]
